According to publication PMC4823791, “A dual drug regimen synergistically blocks human parainfluenza virus infection” (Scientific Reports, 2016):

Tests used:
[1] = target: T1, hPIV-3 HN (haemagglutinin-neuraminidase) (Human parainfluenza 3 virus (strain NIH 47885), UniProt P08492); experiment: Lineweaver-Burk kinetics, MUN fluorescence; assay type: biochemical; conditions: virus particles; MUN 2-20 mM, so Km lies above the tested range (extrapolated): unreliable
Protocol: Lineweaver-Burk kinetics, MUN fluorescence on hPIV-3 HN (haemagglutinin-neuraminidase) | constant (KM) value ... was calculated from this point of convergence

[2] = target: T1, hPIV-3 HN (haemagglutinin-neuraminidase); experiment: fluorogenic MUN neuraminidase inhibition assay; assay type: biochemical; conditions: neuraminidase activity; 2 mM MUN, pH 4.6, 5 mM CaCl2, 37 °C, 30 min; PEG-precipitated intact virus; non-competitive
[3] = target: T1, hPIV-3 HN (haemagglutinin-neuraminidase); experiment: Lineweaver-Burk kinetics, MUN fluorescence; assay type: biochemical; conditions: non-competitive; MUN 2-20 mM, suramin 0, 10, 16 μM; virus particles
[4] = target: T1, hPIV-3 HN (haemagglutinin-neuraminidase); experiment: STD-NMR; assay type: binding; conditions: 5 mM zanamivir alone, 50 mM NaOAc, 5 mM CaCl2, pD 4.6, 283 K; purified UV-inactivated virus particles
[5] = target: T1, hPIV-3 HN (haemagglutinin-neuraminidase); experiment: fluorogenic MUN neuraminidase inhibition screen; assay type: biochemical
Excerpt: fluorogenic MUN neuraminidase inhibition screen on hPIV-3 HN (haemagglutinin-neuraminidase) | Evans blue and erythrosine sodium, with a neuraminidase inhibition of […]

T1 sequence (P08492 whole entry): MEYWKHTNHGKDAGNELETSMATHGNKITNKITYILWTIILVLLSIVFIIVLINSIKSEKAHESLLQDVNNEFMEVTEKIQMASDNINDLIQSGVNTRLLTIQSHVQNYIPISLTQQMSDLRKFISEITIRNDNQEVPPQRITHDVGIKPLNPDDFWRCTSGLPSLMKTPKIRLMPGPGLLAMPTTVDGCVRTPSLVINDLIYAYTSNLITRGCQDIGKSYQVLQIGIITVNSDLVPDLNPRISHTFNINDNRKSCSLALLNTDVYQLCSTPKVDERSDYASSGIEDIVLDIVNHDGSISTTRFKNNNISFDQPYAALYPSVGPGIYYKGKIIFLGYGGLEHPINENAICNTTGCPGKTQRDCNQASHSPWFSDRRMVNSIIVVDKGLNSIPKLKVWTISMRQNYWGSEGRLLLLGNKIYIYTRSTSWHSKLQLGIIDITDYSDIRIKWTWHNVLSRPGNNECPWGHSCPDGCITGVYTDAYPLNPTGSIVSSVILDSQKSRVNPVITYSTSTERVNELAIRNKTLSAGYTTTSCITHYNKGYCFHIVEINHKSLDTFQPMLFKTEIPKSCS

CC(=O)N[C@H]1[C@H]([C@H](O)[C@H](O)CO)O[C@@](Oc2ccc3c(C)cc(=O)oc3c2)(C(=O)O)C[C@@H]1O [compound 6, 2′-(4-methylumbelliferyl) α-D-N-acetylneuraminide]
KM [1]: 30.3 ± 1.02 mM

Cc1ccc(C(=O)Nc2ccc(S(=O)(=O)O)c3cc(S(=O)(=O)O)cc(S(=O)(=O)O)c23)cc1NC(=O)c1cccc(NC(=O)Nc2cccc(C(=O)Nc3cc(C(=O)Nc4ccc(S(=O)(=O)O)c5cc(S(=O)(=O)O)cc(S(=O)(=O)O)c45)ccc3C)c2)c1 [compound 7, suramin]
IC50 [2]: 13.5 µM
Ki [3]: 5.06 ± 0.62 µM

CC(=O)N[C@H]1[C@H]([C@H](O)[C@H](O)CO)OC(C(=O)O)=C[C@@H]1N=C(N)N [compound 3, zanamivir]
STD-NMR [4]: STD-NMR signals of both drugs were obtained, thus confirming their binding to HN

O=C1OC2(c3ccccc31)c1cc(I)c(O)c(I)c1Oc1c2cc(I)c(O)c1I [erythrosine sodium]
inhibition at 100 µM [5]: 92.8 ± 0.9%

Cc1cc(-c2ccc(/N=N/c3ccc4c(S(=O)(=O)O)cc(S(=O)(=O)O)c(N)c4c3O)c(C)c2)ccc1/N=N/c1ccc2c(S(=O)(=O)O)cc(S(=O)(=O)O)c(N)c2c1O [Evans blue]
inhibition at 100 µM [5]: 79.4 ± 1.8%
